The values that follow come from ChEMBL document CHEMBL1144317, “Antimitotic activity and reversal of breast cancer resistance protein-mediated drug resistance by stilbenoids from Bletilla striata” (Bioorg Med Chem Lett, 2005).

The experiment addresses Beta tubulin. Nature of the experiment: Inhibition of tubulin polymerization interacting at the colchicine binding site. It counts as functional.
In general, IC50 refers to the concentration that gives 50% inhibition. On to `COc1c(O)ccc2c1ccc1c(Cc3ccc(O)cc3)c(O)cc(OC)c12`, for which the half-maximal inhibitory concentration (IC50) was determined as 30 µM. In other words, the double-digit micromolar range. On to `COc1c(Cc2ccc(O)cc2)c(O)c(Cc2ccc(O)cc2)c2c1-c1ccc(O)cc1CC2`, for which the IC50 amounted to 30 µM. The figure for `COc1cc(O)c(Cc2ccc(O)cc2)c(CCc2cccc(O)c2)c1Cc1ccc(O)cc1` is 10 µM; for `COc1cc(O)cc(CCc2cccc(O)c2)c1Cc1ccc(O)cc1` it is 10 µM. In the case of `COc1cc(O)c(-c2c(O)cc3c(c2OC)-c2ccc(O)cc2CC3)c2c1-c1ccc(O)cc1CC2`, the IC50 was determined as 30 µM.

In turn, `COc1cc(O)c2c(c1Cc1ccc(O)cc1)CCc1cc(O)ccc1-2` came in with a half-maximal inhibitory concentration (IC50) of 300 µM. The figure for `COc1cc(O)c(-c2c(O)cc(OC)c3c2ccc2cc(O)ccc23)c2ccc3cc(O)ccc3c12` [CIRRHOPETALANTHIN] is 30 µM. `COc1cc(O)c(-c2c(O)cc(OC)c3c2ccc2cc(O)ccc23)c2c1-c1ccc(O)cc1CC2` [CIRRHOPETALANTHRIN] gave an IC50 of 30 µM. In other words, the double-digit micromolar range. `CC[C@]1(O)C[C@@H]2CN(CCc3c([nH]c4ccccc34)[C@@](C(=O)OC)(c3cc4c(cc3OC)N(C)[C@H]3[C@@](O)(C(=O)OC)[C@H](OC(C)=O)[C@]5(CC)C=CCN6CC[C@]43[C@@H]65)C2)C1` [VINBLASTINE]: the IC50 was 1 µM. Compared with the last compound, the IC50 is about 30-fold lower.
